Experimental data from paper PMC3745465 (PLoS ONE, 2013).
Read-outs that look alike come from different tables or passages of the source. Values belong to the compound of their own block, whether it stands above or below them.

How the values were obtained:
[1] = system: apical uptake transporter (AT); conditions: MDCK-MDR1-NKI; fitted
P-gp [2] = biological target: T1, P-gp (Homo sapiens, UniProt P08183); conditions: MDCK-MDR1-NKI; fitted consensus value
in vitro = conditions: dog
[3] = design: method as in earlier work; conditions: ref 18 19 20, cited from earlier work
[4] = system: basolateral digoxin uptake transporter; conditions: Caco-2; 10 µM digoxin B>A, 1 hr; Trel = 0.2
[5] = system: basolateral digoxin uptake transporter; conditions: MDCK-MDR1-NIH; 10 µM digoxin B>A, 1 hr; Trel = 0.6; listed as KCZ
[6] = system: basolateral digoxin uptake transporter; conditions: CPT-B2; 10 µM digoxin B>A, 1 hr; Trel = 0.3
P-gp [7] = biological target: T1, P-gp; assay: cell-based
[8] = mol drug per L lipid / mol drug per L aqueous buffer; 10 µM drug; 37°C
[9] = system: MDCK-MDR1-NKI confluent cell monolayers; conditions: nicardipine up to 100 µM; data not shown
[10] = MDCK-MDR1, with GF120918 2 µM, both chambers, Passive Permeability Coefficient at steady-state PAB, A>B, +GF120918
[11] = MDCK-MDR1, with GF120918 2 µM, both chambers, Passive Permeability Coefficient at steady-state PBA, B>A, +GF120918
[12] = MDCK-MDR1, with GF120918 2 µM, both chambers, passive permeability, direction not given

T1 sequence (P08183 whole entry): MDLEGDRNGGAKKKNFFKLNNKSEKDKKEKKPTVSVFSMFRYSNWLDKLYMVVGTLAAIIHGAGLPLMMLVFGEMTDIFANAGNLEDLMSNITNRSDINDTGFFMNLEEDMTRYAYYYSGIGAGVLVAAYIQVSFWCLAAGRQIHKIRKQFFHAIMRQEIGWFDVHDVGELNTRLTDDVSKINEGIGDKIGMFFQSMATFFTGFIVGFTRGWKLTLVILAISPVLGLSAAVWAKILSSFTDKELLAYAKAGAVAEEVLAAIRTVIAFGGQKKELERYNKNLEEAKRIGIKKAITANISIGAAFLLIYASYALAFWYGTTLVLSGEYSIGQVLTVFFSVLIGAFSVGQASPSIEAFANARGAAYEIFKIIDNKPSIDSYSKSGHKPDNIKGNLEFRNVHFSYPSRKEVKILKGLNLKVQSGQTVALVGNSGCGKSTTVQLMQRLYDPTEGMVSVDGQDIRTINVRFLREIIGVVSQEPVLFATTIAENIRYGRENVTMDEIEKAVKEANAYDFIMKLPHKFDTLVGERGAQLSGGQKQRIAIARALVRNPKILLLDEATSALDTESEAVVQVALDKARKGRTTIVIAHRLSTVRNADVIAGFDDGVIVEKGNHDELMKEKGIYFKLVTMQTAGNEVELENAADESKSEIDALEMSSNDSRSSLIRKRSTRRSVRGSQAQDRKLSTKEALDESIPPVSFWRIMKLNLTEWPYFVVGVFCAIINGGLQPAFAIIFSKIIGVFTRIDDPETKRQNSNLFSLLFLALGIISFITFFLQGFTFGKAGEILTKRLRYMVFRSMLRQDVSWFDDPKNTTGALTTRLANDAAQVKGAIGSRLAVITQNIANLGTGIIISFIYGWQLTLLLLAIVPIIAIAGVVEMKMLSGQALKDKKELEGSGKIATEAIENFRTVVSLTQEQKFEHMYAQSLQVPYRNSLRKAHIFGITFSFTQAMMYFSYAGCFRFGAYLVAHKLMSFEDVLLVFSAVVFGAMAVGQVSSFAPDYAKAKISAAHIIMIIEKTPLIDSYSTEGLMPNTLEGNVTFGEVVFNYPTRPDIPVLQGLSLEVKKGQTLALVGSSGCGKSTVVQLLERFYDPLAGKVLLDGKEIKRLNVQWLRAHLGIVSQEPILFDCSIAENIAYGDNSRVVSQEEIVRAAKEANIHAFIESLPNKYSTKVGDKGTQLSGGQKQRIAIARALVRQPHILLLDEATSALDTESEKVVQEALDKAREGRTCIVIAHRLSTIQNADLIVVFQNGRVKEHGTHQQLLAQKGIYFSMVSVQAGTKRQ

SMILES: CC(C)CN(C[C@@H](O)[C@H](Cc1ccccc1)NC(=O)O[C@H]1CCOC1)S(=O)(=O)c1ccc(N)cc1 [Amprenavir]
- Other Transporters kA, 1st order clearance through apical uptake transporter [1]: 350±30 0 s^−1

SMILES: C[C@H]1O[C@@H](O[C@H]2[C@@H](O)C[C@H](O[C@H]3[C@@H](O)C[C@H](O[C@H]4CC[C@@]5(C)[C@H](CC[C@@H]6[C@@H]5C[C@@H](O)[C@]5(C)[C@@H](C7=CC(=O)OC7)CC[C@]65O)C4)O[C@@H]3C)O[C@@H]2C)C[C@H](O)[C@@H]1O [Digoxin]
- Other Transporters kA, 1st order clearance through apical uptake transporter [1]: 40 ± 20 s⁻¹
- Dissociation from P-gp into Apical Bilayer kr (P-gp [2]): (3±1)×10^+4 s^−1
- Efflux from P-gp into Apical Chamber k2 (P-gp [2]): 3 ± 1 s⁻¹
- Papp (in vitro; [10]): 4 ± 1 ×10⁻⁶ cm/s
- Papp (in vitro; [11]): 5 ± 1 ×10⁻⁶ cm/s
- Papp (in vitro; [12]): < 10 ×10⁻⁶ cm/s
- aggregating compound or not ([3]; enzyme inhibition studies): not to be aggregating compounds

SMILES: CC(=O)N1CCN(c2ccc(OCC3COC(Cn4ccnc4)(c4ccc(Cl)cc4Cl)O3)cc2)CC1 (stereo not drawn) [Ketoconazole]
- KQB, effective association constant of inhibitor to basolateral digoxin uptake transporter [4]: (2±1)×10^6 M^−1
- Other Transporters kA, 1st order clearance through apical uptake transporter [1]: 730±70 0 s^−1
- KQB, effective association constant of inhibitor to basolateral digoxin uptake transporter [5]: (4±2)×10^5 M^−1
- aggregating compound or not ([3]; enzyme inhibition studies): not to be aggregating compounds
- KQB, effective association constant of inhibitor to basolateral digoxin uptake transporter [6]: (4±2)×10^6 M^−1

SMILES: CN(C)C(=O)C(CCN1CCC(O)(c2ccc(Cl)cc2)CC1)(c1ccccc1)c1ccccc1 [Loperamide]
- Dissociation from P-gp into Apical Bilayer kr (P-gp [2]): (2±1)×10^+4 s^−1
- Efflux from P-gp into Apical Chamber k2 (P-gp [2]): 0.4 ± 0.08 s⁻¹
- Papp (in vitro; MDCK-MDR1, Passive Permeability Coefficient at steady-state PAB, A>B, +GF120918): 32 ± 7 ×10⁻⁶ cm/s
- Papp (in vitro; MDCK-MDR1, Passive Permeability Coefficient at steady-state PBA, B>A, +GF120918): 32 ± 9 ×10⁻⁶ cm/s
- Papp (in vitro; MDCK-MDR1, passive permeability, direction not given): ~32 ×10⁻⁶ cm/s
- Kd (P-gp [7]): 200 µM
- Molar partition coefficient, Apical Outer Leaflet PC/SM/Chol (1∶1∶1) (mols), KAO [8]: 300±50
- Molar partition coefficient, Basolateral Outer Leaflet PC/Chol (2∶1) (mols), KBO [8]: 450±50
- Molar partition coefficient, Plasma Cytosolic Leaflet PE/PS/Chol (1∶1∶1) (mols), KPC [8]: 1500±250

- Dissociation from P-gp into Apical Bilayer kr (P-gp [2]): (4±2)×10^+3 s^−1
- Efflux from P-gp into Apical Chamber k2 (P-gp [2]): 3 ± 0.4 s⁻¹
- Papp (in vitro; [10]): 67 ± 5 ×10⁻⁶ cm/s
- Papp (in vitro; [11]): 67 ± 5 ×10⁻⁶ cm/s
SMILES: C=C[C@H]1C[N@@]2CC[C@H]1C[C@@H]2[C@@H](O)c1ccnc2ccc(OC)cc12 [Quinidine]

- Dissociation from P-gp into Apical Bilayer kr (P-gp [2]): (5±2.5)×10^+4 s^−1
- Efflux from P-gp into Apical Chamber k2 (P-gp [2]): 3 ± 0.5 s⁻¹
- Papp (in vitro; [10]): 5.5 ± 2 ×10⁻⁶ cm/s
- Papp (in vitro; [11]): 9 ± 1 ×10⁻⁶ cm/s
- Papp (in vitro; [12]): < 10 ×10⁻⁶ cm/s
- Molar partition coefficient, Apical Outer Leaflet PC/SM/Chol (1∶1∶1) (mols), KAO [8]: 200±3
- Molar partition coefficient, Basolateral Outer Leaflet PC/Chol (2∶1) (mols), KBO [8]: 200±20
- Molar partition coefficient, Plasma Cytosolic Leaflet PE/PS/Chol (1∶1∶1) (mols), KPC [8]: 200±50
SMILES: CC[C@]1(O)C[C@@H]2CN(CCc3c([nH]c4ccccc34)[C@@](C(=O)OC)(c3cc4c(cc3OC)N(C)[C@H]3[C@@](O)(C(=O)OC)[C@H](OC(C)=O)[C@]5(CC)C=CCN6CC[C@]43[C@@H]65)C2)C1 [Vinblastine]
- Other Transporters kA, 1st order clearance through apical uptake transporter [1]: 0 s⁻¹

SMILES: COC(=O)C1=C(C)NC(C)=C(C(=O)OCCN(C)Cc2ccccc2)C1c1cccc([N+](=O)[O-])c1 (stereo not drawn) [nicardipine]
- concentration above which large aggregates are made ([3]; enzyme inhibition studies): 30–40 µm
- concentration at which colloidal aggregates form [3]: about 30 µM
- PC plateau (large inhibitor concentration plateau) of digoxin transport inhibition [9]: significantly above zero
- shape of inhibition curve of digoxin transport [9]: sigmoidal
